Reference: EP3884941A1, “INFLAMMASOME INHIBITORS AND USE THEREOF” (CENTRO DE INVESTIGACION PRINCIPE FELIPE, priority 2020, dated 2021)
“Also recorded” adds a separate entry of the source. Where two headings read alike, the source gives them in different places.

How the values were obtained:
[1] = target: T1, ASC-mediated PC1 activation (Homo sapiens, UniProt P29466); assay: ASC-mediated PC1 reconstitution in vitro assay (primary screening); format: biochemical
T1 construct: His; made in house; host or cells: PC1: Sf9 insect cells (baculovirus)
T1 sequence (P29466 1-404): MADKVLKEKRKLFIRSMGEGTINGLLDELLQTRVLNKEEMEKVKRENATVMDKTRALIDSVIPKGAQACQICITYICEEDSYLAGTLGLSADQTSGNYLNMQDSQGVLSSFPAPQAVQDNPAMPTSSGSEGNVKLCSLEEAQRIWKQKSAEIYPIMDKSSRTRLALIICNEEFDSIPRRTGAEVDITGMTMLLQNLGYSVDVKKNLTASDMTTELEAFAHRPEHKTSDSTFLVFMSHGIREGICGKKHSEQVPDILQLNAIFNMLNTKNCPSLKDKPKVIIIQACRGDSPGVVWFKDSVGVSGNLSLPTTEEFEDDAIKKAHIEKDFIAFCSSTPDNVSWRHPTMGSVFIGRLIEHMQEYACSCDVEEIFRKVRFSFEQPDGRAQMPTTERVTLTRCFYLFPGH
Procedure: Recombinant PC1 (50 nM) was preincubated with the indicated concentrations of compounds for 20 min at RT in Assay Buffer (20 mM HEPES pH 7.5, 10 mM KCI, 1.5 mM MgCl2, 1mM EDTA, 1 mM EGTA, 1 mM DTT). Then 300 nM of ASC were added and incubated for another 10 min period. Caspase-1 activation was measured using fluorogenic substrate Ac-WEHD-AFC (80 µM; Enzo Life Sciences) by continuously monitoring the release of the AFC (7-Amino-4-trifluoromethylcoumarin) product in a Wallac Victor workstation. The compounds were initially tested at 20 µM with 1% of DMSO. Data are reported as the percentage of inhibition compared with the absence of the compound.
The materials and methods employed in these experiments are now described.

[2] = target: T2, Recombinant caspase-1 (Homo sapiens, UniProt P29466); assay: caspase-1 in vitro activation assay (secondary screening); format: biochemical; details: preactivated recombinant caspase-1
T2 sequence (P29466 120-297 limits assumed): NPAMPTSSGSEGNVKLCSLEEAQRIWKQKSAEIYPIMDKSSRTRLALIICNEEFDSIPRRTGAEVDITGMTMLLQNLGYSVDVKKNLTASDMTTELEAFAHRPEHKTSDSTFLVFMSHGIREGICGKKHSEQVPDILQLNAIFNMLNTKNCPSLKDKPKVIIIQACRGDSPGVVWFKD
T2 sequence (P29466 317-404 limits assumed): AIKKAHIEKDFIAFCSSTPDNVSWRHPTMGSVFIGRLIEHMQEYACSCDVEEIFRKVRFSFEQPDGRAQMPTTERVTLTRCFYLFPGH
Procedure: Recombinant caspase-1 (50 nM) was incubated with the indicated concentrations of compounds for 20 min at RT in Assay Buffer. Then fluorogenic substrate Ac-WEHD-AFC (80 µM) was added, and activity was monitored in a Wallac Victor workstation. Data are reported as the percentage of inhibition compared with the absence of the inhibitor.

[3] = test system: NLRP3 inflammasome; assay: inflammasome activation cellular assay, LPS plus ATP, THP-1 cells; format: cell-based, human
Procedure: The MM01 compound was evaluated in the THP-1, or PMA-differentiated THP-1 cells (50 nM PMA for 24h) stimulated with lipopolysaccharide (LPS) plus adenosine triphosphate (ATP) to stimulate ASC-dependent inflammasomes NLRP3. Briefly, 1x10^6 cells were seeded in 6-well plates in 1 mL RPMI media that contained 1% FBS. Cells were either mock-treated or primed with compounds at the indicated concentrations for 30 min, followed by treatment with 100 ng/mL LPS (Sigma) and 2.5 mM ATP (Sigma) for 6 h at 37°C. In the case of nigericin stimulation, cells were primed with LPS for 3h, and then 10 µM nigericin (Sigma) was added for 30 min. Supernatants were harvested and clarified by centrifugation at 1500 rpm at RT, and a cytokine analysis was performed. Both IL-1β secretion and the release of IL-18were monitored by an ELISA assay (BD OptEIA™ Human IL-1β ELISA Kit and Human IL-18 Module Set eBioscience) following the manufacturer's instructions. Cell viability was analyzed in parallel by evaluating the release of lactate dehydrogenase (LDH) according to a commercial kit (CytoTox-ONE™ Homogeneous Membrane Integrity Assay; Promega). The release of LDH was calculated using the formula: the release of LDH (%) = 100x (Abs490 treated -Abs490 untreated cells)/ Abs490 untreated cells lysed with Triton 9% (maximum release of LDH).
The supernatants of the treated cells were precipitated by the chloroform-methanol method. Pellets were obtained by lysing cells in 25 mM of Tris-HCI pH 7.4, 1 mM EDTA, 1 mM EGTA and 1% SDS, plus protease and phosphatase inhibitors. The protein concentration was determined by the BCA protein assay. Samples were separated in a 14% SDS-PAGE gel, transferred to a nitrocellulose membrane and blocked with 5% skimmed milk for 1 h. Then the membrane was incubated overnight with primary antibodies: α-casp1 (1:1000; Cell Signaling 2225), α-IL-1β (1:1000; Acris R1130P), α-NLRP3 (1:1000; Cell Signaling 15101), α-tubulin (1:3000; Abcam ab6160) at 4°C. Membranes were washed and probed with the appropriate secondary antibody conjugated with peroxidase for enhanced chemiluminescence detection (Amersham Pharmacia Biotech).

[4] = test system: AIM2 inflammasome; assay: AIM2 inflammasome activation, poly(dA:dT), PMA-differentiated THP-1 cells; format: cell-based, human; details: PMA-differentiated THP-1, poly(dA:dT) 200 µg/ml; MM01 10 µM
Procedure: (§1) The materials and methods employed in these experiments are now described. The molecules were evaluated in the THP-1, or PMA-differentiated THP-1 cells (50 nM PMA for 24h) as described in Example 3. To stimulate NLRP1 inflammasome, cells were either mock-treated or primed with compounds at the indicated concentrations for 30 min, followed by treatment with 100 ng/mL LPS (Sigma) and 50 µg/ml MDP (Sigma) for 6 h at 37°C. In the case of NLRC4 inflammasome induction, cells were pretreated with the compounds for 30 min and then cells were stimulated for 3 h with Salmonella Typhimurium (MOI 5). To induce AIM2 inflammasome, cells were pretreated in the same conditions as before and transfected with poly(dA:dT) (200 µg/ml; Sigma) overnight using Lipofectamine 2000 (Invitrogen). Both IL-1β secretion and the release of IL-18 were monitored as previously described in Example 3.

[5] = test system: NLRC4 inflammasome; assay: NLRC4 inflammasome activation, Salmonella Typhimurium, THP-1 cells; format: cell-based, human; details: MM01 10 µM
Procedure: as §1

[6] = THP-1, LPS 100 ng/ml + ATP 2.5 mM, MM01 1, 2.5 or 5 µM, ELISA

Structure (SMILES): C=CCN1C(=O)/C(=C2/C(=O)Nc3ccccc32)SC1=S [MM01]
- IC50 ([1]; PC1 50 nM, ASC 300 nM, substrate Ac-WEHD-AFC, read-out: IC50): 500 ± 100 nM
- IC50 ([1]; dose-response curve 0.04 to 40 µM (Figure 1B), stated in words): in the nanomolar range
- formation of p20 subunit ([1]; immunoblotting of PC1 processing (Figure 1C)): decrease
- caspase-1 activity [2]: do not act on
- IL-1β secretion [3, 6]: decrease
- IL-18 secretion [3, 6]: decrease
- caspase-1 and IL-1β processing ([3]; THP-1, LPS + ATP, immunoblotting (Figure 3C)): decrease
- LDH release ([3]; THP-1, LPS + ATP, pyroptosis / cell viability, MM01 1, 2.5 or 5 µM, VX-765 5 µM): significantly reduce; also recorded: significantively decreased
- IL-1β secretion [4]: significantly decreased
- cytokine maturation and release ([5]; THP-1, Salmonella infection (MOI 5)): impaired
- pyroptosis ([5]; THP-1, Salmonella infection, LDH): decrease
